Bridge positions count the residues as written; N and C are the ends. Square brackets hold non-standard residues; d marks the D form. Peptide text beside a SMILES is read from it. 1Nal = N[C@@H](Cc1cccc2ccccc12)C(=O)O
How the values were obtained:
human Kv1.3 (CHO) = target: T1, human Kv1.3 (CHO) (Homo sapiens, UniProt P22001); experiment: cell-based
T1 construct: expressed in transfected cells; host or cells: CHO

human Kv1.1 (HEK293) = target: T2, human Kv1.1 (HEK293) (Homo sapiens, UniProt Q09470); experiment: cell-based
T2 construct: expressed in transfected cells; host or cells: HEK293
T2 sequence (Q09470 whole entry): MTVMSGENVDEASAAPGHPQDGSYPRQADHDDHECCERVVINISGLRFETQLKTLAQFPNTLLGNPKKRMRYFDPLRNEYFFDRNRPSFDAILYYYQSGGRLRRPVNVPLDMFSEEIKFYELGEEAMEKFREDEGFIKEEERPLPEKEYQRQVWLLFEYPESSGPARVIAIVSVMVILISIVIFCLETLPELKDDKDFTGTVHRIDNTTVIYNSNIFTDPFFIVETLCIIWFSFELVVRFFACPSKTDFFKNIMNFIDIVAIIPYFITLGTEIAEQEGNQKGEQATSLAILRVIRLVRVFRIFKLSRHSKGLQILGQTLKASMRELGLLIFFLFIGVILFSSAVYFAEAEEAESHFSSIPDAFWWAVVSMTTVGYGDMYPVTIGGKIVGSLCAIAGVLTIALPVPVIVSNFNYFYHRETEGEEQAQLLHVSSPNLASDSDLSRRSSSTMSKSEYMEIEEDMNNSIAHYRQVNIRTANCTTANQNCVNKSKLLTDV

T1 sequence (P22001 whole entry): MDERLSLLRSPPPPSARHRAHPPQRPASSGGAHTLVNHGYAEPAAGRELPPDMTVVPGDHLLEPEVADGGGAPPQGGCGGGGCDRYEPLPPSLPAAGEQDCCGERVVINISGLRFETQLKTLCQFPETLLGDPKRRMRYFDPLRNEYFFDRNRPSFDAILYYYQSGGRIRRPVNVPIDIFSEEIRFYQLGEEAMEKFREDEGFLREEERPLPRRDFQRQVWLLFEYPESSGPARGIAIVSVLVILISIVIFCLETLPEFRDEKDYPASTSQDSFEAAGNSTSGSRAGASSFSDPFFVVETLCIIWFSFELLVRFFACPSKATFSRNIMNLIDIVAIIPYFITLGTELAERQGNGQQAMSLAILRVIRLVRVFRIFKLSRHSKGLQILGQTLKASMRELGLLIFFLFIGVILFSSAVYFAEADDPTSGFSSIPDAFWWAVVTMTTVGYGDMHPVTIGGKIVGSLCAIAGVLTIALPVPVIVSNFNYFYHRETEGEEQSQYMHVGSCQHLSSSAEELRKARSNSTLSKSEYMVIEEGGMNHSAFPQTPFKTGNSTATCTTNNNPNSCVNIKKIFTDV

SMILES	IC50 (human Kv1.3 (CHO)) [nM]	IC50 (human Kv1.1 (HEK293)) [nM]
CC[C@H](C)[C@@H]1NC(=O)[C@H](CCCCN)NC(=O)[C@@H](NC(=O)[C@H](CCCCN)NC(=O)[C@@H](NC(=O)[C@H](CC(N)=O)NC(=O)[C@@H](NC(=O)[C@@H](NC(=O)[C@@H](NC(=O)CN)C(C)C)[C@@H](C)CC)[C@@H](C)CC)C(C)C)CSSC[C@@H]2NC(=O)[C@H](CCCCN)NC(=O)CNC(=O)[C@H](Cc3ccccc3)NC(=O)[C@H](CCCNC(=N)N)NC(=O)[C@H](CCSC)NC(=O)CNC(=O)[C@H](C)NC(=O)[C@H](CCCCN)NC(=O)[C@H](CCCCN)NC(=O)[C@@H]3CSSC[C@@H](C(=O)N[C@H](C(=O)N4CCC[C@H]4C(=O)N[C@@H](CCCCN)C(=O)O)[C@@H](C)O)NC(=O)[C@H](Cc4c[nH]cn4)NC(=O)[C@H](CSSC[C@H](NC(=O)[C@H](CCC(N)=O)NC(=O)[C@H](CCCNC(=N)N)NC(=O)[C@H](CO)NC1=O)C(=O)N[C@@H](CC(C)C)C(=O)N[C@@H](CCC(=O)O)C(=O)N[C@@H](CCC(=O)O)C(=O)N3)NC(=O)[C@H](CCCCN)NC(=O)CNC(=O)[C@H](CC(N)=O)NC(=O)[C@H](CCSC)NC2=O [P17E] (H-GVIINVKCKISRQCLEECKKAGMRFGKCMNGKCHCTPK-OH; disulfide 8-28, 14-33, 18-35)	0.0145	0.00181
CC[C@H](C)[C@@H]1NC(=O)[C@H](CCCCN)NC(=O)[C@@H](NC(=O)[C@H](CCCCN)NC(=O)[C@@H](NC(=O)[C@H](CC(N)=O)NC(=O)[C@@H](NC(=O)[C@@H](NC(=O)[C@@H](NC(=O)CN)C(C)C)[C@@H](C)CC)[C@@H](C)CC)C(C)C)CSSC[C@@H]2NC(=O)[C@H](CCCCN)NC(=O)CNC(=O)[C@H](Cc3ccccc3)NC(=O)[C@H](CCCNC(=N)N)NC(=O)[C@H](CCSC)NC(=O)CNC(=O)[C@H](C)NC(=O)[C@H](CCCCN)NC(=O)[C@H](CCCCN)NC(=O)[C@@H]3CSSC[C@@H](C(=O)N[C@H](C(=O)N4CCC[C@H]4C(=O)N[C@@H](CCCCN)C(=O)O)[C@@H](C)O)NC(=O)[C@H](Cc4c[nH]cn4)NC(=O)[C@H](CSSC[C@H](NC(=O)[C@H](CCC(N)=O)NC(=O)[C@H](CCCNC(=N)N)NC(=O)[C@H](CO)NC1=O)C(=O)N[C@@H](CC(C)C)C(=O)N[C@@H](CCC(=O)O)C(=O)N[C@@H](Cc1cccc4ccccc14)C(=O)N3)NC(=O)[C@H](CCCCN)NC(=O)CNC(=O)[C@H](CC(N)=O)NC(=O)[C@H](CCSC)NC2=O [P17Nal] (H-GVIINVKCKISRQCLE[1Nal]CKKAGMRFGKCMNGKCHCTPK-OH; disulfide 8-28, 14-33, 18-35)	0.0162	< 0.00152
CC[C@H](C)[C@@H]1NC(=O)[C@H](CCCCN)NC(=O)[C@@H](NC(=O)[C@H](CCCCN)NC(=O)[C@@H](NC(=O)[C@H](CC(N)=O)NC(=O)[C@@H](NC(=O)[C@@H](NC(=O)[C@@H](NC(=O)CN)C(C)C)[C@@H](C)CC)[C@@H](C)CC)C(C)C)CSSC[C@@H]2NC(=O)[C@H](CCCCN)NC(=O)CNC(=O)[C@H](Cc3ccccc3)NC(=O)[C@H](CCCNC(=N)N)NC(=O)[C@H](CCSC)NC(=O)CNC(=O)[C@H](C)NC(=O)[C@H](CCCCN)NC(=O)[C@H](CCCCN)NC(=O)[C@@H]3CSSC[C@@H](C(=O)N[C@H](C(=O)N4CCC[C@H]4C(=O)N[C@@H](CCCCN)C(=O)O)[C@@H](C)O)NC(=O)[C@H](Cc4c[nH]cn4)NC(=O)[C@H](CSSC[C@H](NC(=O)[C@H](CCC(N)=O)NC(=O)[C@H](CCCNC(=N)N)NC(=O)[C@H](CO)NC1=O)C(=O)N[C@@H](CC(C)C)C(=O)N[C@@H](CCC(=O)O)C(=O)N[C@@H](CCCNC(=N)N)C(=O)N3)NC(=O)[C@H](CCCCN)NC(=O)CNC(=O)[C@H](CC(N)=O)NC(=O)[C@H](CCSC)NC2=O [P17R] (H-GVIINVKCKISRQCLERCKKAGMRFGKCMNGKCHCTPK-OH; disulfide 8-28, 14-33, 18-35)	0.0104	< 0.00152
CC[C@H](C)[C@@H]1NC(=O)[C@H](CCCCN)NC(=O)[C@@H](NC(=O)[C@H](CCCCN)NC(=O)[C@@H](NC(=O)[C@H](CC(N)=O)NC(=O)[C@@H](NC(=O)[C@@H](NC(=O)[C@@H](NC(=O)CN)C(C)C)[C@@H](C)CC)[C@@H](C)CC)C(C)C)CSSC[C@@H]2NC(=O)[C@H](CCCCN)NC(=O)CNC(=O)[C@H](Cc3ccccc3)NC(=O)[C@H](CCCNC(=N)N)NC(=O)[C@H](CCSC)NC(=O)CNC(=O)[C@H](C)NC(=O)[C@H](CCCCN)NC(=O)[C@H](CCCCN)NC(=O)[C@@H]3CSSC[C@@H](C(=O)N[C@H](C(=O)N[C@@H](Cc4cccc5ccccc45)C(=O)N[C@@H](CCCCN)C(=O)O)[C@@H](C)O)NC(=O)[C@H](Cc4c[nH]cn4)NC(=O)[C@H](CSSC[C@H](NC(=O)[C@H](CCC(N)=O)NC(=O)[C@H](CCCNC(=N)N)NC(=O)[C@H](CO)NC1=O)C(=O)N[C@@H](CC(C)C)C(=O)N[C@@H](CCC(=O)O)C(=O)N1CCC[C@H]1C(=O)N3)NC(=O)[C@H](CCCCN)NC(=O)CNC(=O)[C@H](CC(N)=O)NC(=O)[C@H](CCSC)NC2=O [P37Nal] (H-GVIINVKCKISRQCLEPCKKAGMRFGKCMNGKCHCT[1Nal]K-OH; disulfide 8-28, 14-33, 18-35)	0.0708	0.00674
CC[C@H](C)[C@@H]1NC(=O)[C@H](CCCCN)NC(=O)[C@@H](NC(=O)[C@H](CCCCN)NC(=O)[C@@H](NC(=O)[C@H](CC(N)=O)NC(=O)[C@@H](NC(=O)[C@@H](NC(=O)[C@@H](NC(=O)CN)C(C)C)[C@@H](C)CC)[C@@H](C)CC)C(C)C)CSSC[C@@H]2NC(=O)[C@H](CCCCN)NC(=O)CNC(=O)[C@H](Cc3ccccc3)NC(=O)[C@H](CCCNC(=N)N)NC(=O)[C@H](CCSC)NC(=O)CNC(=O)[C@H](C)NC(=O)[C@H](CCCCN)NC(=O)[C@H](CCCCN)NC(=O)[C@@H]3CSSC[C@@H](C(=O)N[C@H](C(=O)N[C@@H](CCCNC(=N)N)C(=O)N[C@@H](CCCCN)C(=O)O)[C@@H](C)O)NC(=O)[C@H](Cc4c[nH]cn4)NC(=O)[C@H](CSSC[C@H](NC(=O)[C@H](CCC(N)=O)NC(=O)[C@H](CCCNC(=N)N)NC(=O)[C@H](CO)NC1=O)C(=O)N[C@@H](CC(C)C)C(=O)N[C@@H](CCC(=O)O)C(=O)N1CCC[C@H]1C(=O)N3)NC(=O)[C@H](CCCCN)NC(=O)CNC(=O)[C@H](CC(N)=O)NC(=O)[C@H](CCSC)NC2=O [P37R] (H-GVIINVKCKISRQCLEPCKKAGMRFGKCMNGKCHCTRK-OH; disulfide 8-28, 14-33, 18-35)	0.0133	0.00201
CC[C@H](C)[C@@H]1NC(=O)[C@H](CCCCN)NC(=O)[C@@H](NC(=O)[C@H](CCCCN)NC(=O)[C@@H](NC(=O)[C@H](CC(N)=O)NC(=O)[C@@H](NC(=O)[C@@H](NC(=O)[C@@H](NC(=O)CN)C(C)C)[C@@H](C)CC)[C@@H](C)CC)C(C)C)CSSC[C@@H]2NC(=O)[C@H](CCCCN)NC(=O)CNC(=O)[C@H](Cc3ccccc3)NC(=O)[C@H](CCCNC(=N)N)NC(=O)[C@H](CCSC)NC(=O)CNC(=O)[C@H](C)NC(=O)[C@H](CCCCN)NC(=O)[C@H](CCCCN)NC(=O)[C@@H]3CSSC[C@@H](C(=O)N[C@H](C(=O)N4CCC[C@H]4C(=O)N[C@@H](CCCCN)C(=O)O)[C@@H](C)O)NC(=O)[C@H](Cc4c[nH]cn4)NC(=O)[C@H](CSSC[C@H](NC(=O)[C@H](C)NC(=O)[C@H](CCCNC(=N)N)NC(=O)[C@H](CO)NC1=O)C(=O)N[C@@H](CC(C)C)C(=O)N[C@@H](CCC(=O)O)C(=O)N1CCC[C@H]1C(=O)N3)NC(=O)[C@H](CCCCN)NC(=O)CNC(=O)[C@H](CC(N)=O)NC(=O)[C@H](CCSC)NC2=O [Q13A] (H-GVIINVKCKISRACLEPCKKAGMRFGKCMNGKCHCTPK-OH; disulfide 8-28, 14-33, 18-35)	0.249	0.0217
CC[C@H](C)[C@@H]1NC(=O)[C@H](CCCCN)NC(=O)[C@@H](NC(=O)[C@H](CCCCN)NC(=O)[C@@H](NC(=O)[C@H](CC(N)=O)NC(=O)[C@@H](NC(=O)[C@@H](NC(=O)[C@@H](NC(=O)CN)C(C)C)[C@@H](C)CC)[C@@H](C)CC)C(C)C)CSSC[C@@H]2NC(=O)[C@H](CCCCN)NC(=O)CNC(=O)[C@H](Cc3ccccc3)NC(=O)[C@H](CCCNC(=N)N)NC(=O)[C@H](CCSC)NC(=O)CNC(=O)[C@H](C)NC(=O)[C@H](CCCCN)NC(=O)[C@H](CCCCN)NC(=O)[C@@H]3CSSC[C@@H](C(=O)N[C@H](C(=O)N4CCC[C@H]4C(=O)N[C@@H](CCCCN)C(=O)O)[C@@H](C)O)NC(=O)[C@H](Cc4c[nH]cn4)NC(=O)[C@H](CSSC[C@H](NC(=O)[C@H](CCC(=O)O)NC(=O)[C@H](CCCNC(=N)N)NC(=O)[C@H](CO)NC1=O)C(=O)N[C@@H](CC(C)C)C(=O)N[C@@H](CCC(=O)O)C(=O)N1CCC[C@H]1C(=O)N3)NC(=O)[C@H](CCCCN)NC(=O)CNC(=O)[C@H](CC(N)=O)NC(=O)[C@H](CCSC)NC2=O [Q13E] (H-GVIINVKCKISRECLEPCKKAGMRFGKCMNGKCHCTPK-OH; disulfide 8-28, 14-33, 18-35)	0.0459	0.00628
CC[C@H](C)[C@@H]1NC(=O)[C@H](CCCCN)NC(=O)[C@@H](NC(=O)[C@H](CCCCN)NC(=O)[C@@H](NC(=O)[C@H](CC(N)=O)NC(=O)[C@@H](NC(=O)[C@@H](NC(=O)[C@@H](NC(=O)CN)C(C)C)[C@@H](C)CC)[C@@H](C)CC)C(C)C)CSSC[C@@H]2NC(=O)[C@H](CCCCN)NC(=O)CNC(=O)[C@H](Cc3ccccc3)NC(=O)[C@H](CCCNC(=N)N)NC(=O)[C@H](CCSC)NC(=O)CNC(=O)[C@H](C)NC(=O)[C@H](CCCCN)NC(=O)[C@H](CCCCN)NC(=O)[C@@H]3CSSC[C@@H](C(=O)N[C@H](C(=O)N4CCC[C@H]4C(=O)N[C@@H](CCCCN)C(=O)O)[C@@H](C)O)NC(=O)[C@H](Cc4c[nH]cn4)NC(=O)[C@H](CSSC[C@H](NC(=O)[C@H](CCCNC(=N)N)NC(=O)[C@H](CCCNC(=N)N)NC(=O)[C@H](CO)NC1=O)C(=O)N[C@@H](CC(C)C)C(=O)N[C@@H](CCC(=O)O)C(=O)N1CCC[C@H]1C(=O)N3)NC(=O)[C@H](CCCCN)NC(=O)CNC(=O)[C@H](CC(N)=O)NC(=O)[C@H](CCSC)NC2=O [Q13R] (H-GVIINVKCKISRRCLEPCKKAGMRFGKCMNGKCHCTPK-OH; disulfide 8-28, 14-33, 18-35)	0.0153	< 0.00152

Source: patent US20090299044A1 (priority 2006, published 2009)
